Laboratory results: patent publication US6465228B1, “Levodione reductase” (Roche Vitamins, Inc., priority 1999, dated 2002)
Entries after “also recorded” stand apart in the source; their conditions may differ. Read-outs that look alike come from different tables or passages of the source.

Experiments:
[1] = tested on: Corynebacterium aquaticum AKU611; assay: Biolog System assimilation of carbon sources; format: cell-based; settings: 96-well plate, BUGM+B medium, 24 hours at 28° C.
From the text: Each well contained one of the 96 types of carbon sources in BUGM+B medium (Biolog Universal Growth Media+Blood) (Biolog Inc.).

levodione reductase [2] = target: T1, levodione reductase (Leifsonia aquatica, UniProt Q9LBG2); format: biochemical, Corynebacterium aquaticum AKU611
T1 construct: The LR is isolated and purified from the cell-free extract of disrupted cells; made in house; host or cells: Corynebacterium aquaticum AKU611 (FERM BP-6448); This is the natural producer and there was no recombinant expression; The enzyme was purified by ammonium sulfate precipitation and DEAE-Sephacel, alkyl Superose and MONO Q chromatography
T1 sequence (Q9LBG2 1-267): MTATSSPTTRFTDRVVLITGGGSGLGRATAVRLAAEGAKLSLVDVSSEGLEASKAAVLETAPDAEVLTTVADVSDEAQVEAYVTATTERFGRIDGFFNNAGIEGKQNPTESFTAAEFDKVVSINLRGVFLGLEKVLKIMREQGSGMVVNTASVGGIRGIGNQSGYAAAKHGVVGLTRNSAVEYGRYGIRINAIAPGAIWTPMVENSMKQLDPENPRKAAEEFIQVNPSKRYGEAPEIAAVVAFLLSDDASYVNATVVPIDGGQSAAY
Experimental: (§1) A basal reaction mixture having a total volume of 500 μl includes 100 μl of 1 M potassium phosphate buffer (pH 7.0), 20 μl of 8 mM NADH in 0.2 mM KOH, 10-40 μl of the enzyme solution (i.e., levodione reductase), and water up to a total of 500 μl . This reaction mixture was incubated for 1 minute at 37 ° C. Then, 2 μl of 0.5 M levodione solution were added to give a final concentration of 2 mM, and the whole mixture was incubated for 1 minute at 37 ° C. The levodione reductase enzyme activity was monitored with the decrease of the absorbance of NADH at 340 nm.

levodione reductase [3] = target: T1, levodione reductase; assay: Substrate specificity, standard LR enzyme assay (NADH decrease at 340 nm); format: biochemical, Corynebacterium aquaticum AKU611; settings: for Enzyme Activity: substrate 2 mM final concentration instead of levodione
Experimental: as §1
In the present invention, one unit of the levodione reductase enzyme activity is defined as the amount of the levodione reductase which catalyzes the oxidation of 1 μmole of NADH per minute.
The substrate specificity of the enzyme was determined using the same enzyme assay method as described under 1, except that various solutions containing different substrates (2 mM final concentration in the reaction mixture) were used instead of levodione.

levodione reductase [4] = target: T1, levodione reductase; assay: Co-factor requirement / identification of reaction product; format: biochemical, Corynebacterium aquaticum AKU611; settings: for function as co-factor / electron donor: reduction of levodione to actinol
Experimental: […] To this reaction mixture, 10 Al of a 0.5 M levodione solution were added five times at 6 minute intervals. The reaction mixture was incubated for a further 5 minutes, and extracted with 1 ml of ethyl acetate. The extract was analyzed by gas chromatography (column: HR-20M (Shinwa, Kyoto, Japan) 0.25 mm Ø×30 m), column temperature: 160° C. (constant), injector temperature: 250° C., carrier gas: He (about 1 ml/min.). As a result, the product was identified as being actinol in comparison with a standard sample of actinol.

[5] = Table 4-1, + 3 mM NaCl, metal 100 mM
[6] = Table 4-1, + 3 mM NaCl, metal 200 mM
[7] = Table 4-1, + 3 mM NaCl, metal 400 mM
[8] = Table 4-1, + 3 mM NaCl, metal 800 mM
[9] = Table 4-1, + 3 mM NaCl, metal 1600 mM
[10] = Table 4-1, + 3 mM NaCl, metal 1800 mM
[11] = Table 4-1, + 3 mM NaCl, metal 2000 mM
[12] = Table 4-1, + 3 mM NaCl, metal 2500 mM
[13] = Table 4-1, + 3 mM NaCl, metal 3000 mM

OC[C@H]1O[C@H](O[C@H]2[C@H](O)[C@@H](O)[C@@H](O[C@H]3[C@H](O)[C@@H](O)C(O)O[C@@H]3CO)O[C@@H]2CO)[C@H](O)[C@@H](O)[C@@H]1O (mixture of isomers) [C4, Maltotriitrose]
Assimilation [1]: +

O=P(O)(O)OCC(O)CO (racemic) [H12, DL-α-glycerol phosphate]
Assimilation [1]: −

OC[C@H]1O[C@@H]2O[C@H]3[C@H](O)[C@@H](O)[C@@H](O[C@H]4[C@H](O)[C@@H](O)[C@@H](O[C@H]5[C@H](O)[C@@H](O)[C@@H](O[C@H]6[C@H](O)[C@@H](O)[C@@H](O[C@H]7[C@H](O)[C@@H](O)[C@@H](O[C@H]1[C@H](O)[C@H]2O)O[C@@H]7CO)O[C@@H]6CO)O[C@@H]5CO)O[C@@H]4CO)O[C@@H]3CO [A2, α-cyclodextrin]
Assimilation [1]: −

OC[C@H]1O[C@@H]2O[C@H]3[C@H](O)[C@@H](O)[C@@H](O[C@H]4[C@H](O)[C@@H](O)[C@@H](O[C@H]5[C@H](O)[C@@H](O)[C@@H](O[C@H]6[C@H](O)[C@@H](O)[C@@H](O[C@H]7[C@H](O)[C@@H](O)[C@@H](O[C@H]8[C@H](O)[C@@H](O)[C@@H](O[C@H]1[C@H](O)[C@H]2O)O[C@@H]8CO)O[C@@H]7CO)O[C@@H]6CO)O[C@@H]5CO)O[C@@H]4CO)O[C@@H]3CO [A3, β-cyclodextrin]
Assimilation [1]: −

OC[C@@H](O)C(O)[C@H](O)CO [B2, D-arabitol]
Assimilation [1]: +

O[C@H]1[C@H](O)[C@@H](O)[C@H](O)[C@@H](O)[C@H]1O [B12, m-inositol]
Assimilation [1]: −

OC[C@H]1O[C@@](CO)(O[C@H]2O[C@H](CO)[C@@H](O)[C@H](O)[C@H]2O)[C@@H](O[C@H]2O[C@H](CO)[C@@H](O)[C@H](O)[C@H]2O)[C@@H]1O [C7, D-melezitose]
Assimilation [1]: −

OC[C@H]1O[C@H](OC[C@H]2OC(O)[C@H](O)[C@@H](O)[C@@H]2O)[C@H](O)[C@@H](O)[C@H]1O (stereo partly drawn) [C8, D-melibiose]
Assimilation [1]: +

COC1OC(CO)C(O)C(O)C1O [C9, α-methyl-D-galactoside]
Assimilation [1]: −

COC1OC(CO)C(O)C(O)C1O [C10, α-methyl-D-galactoside]
Assimilation [1]: −

CO[C@H]1O[C@H](CO)[C@@H](O)[C@H](O)[C@H]1O [C12, α-methyl-D-glucoside]
Assimilation [1]: −

[Cl-].[Cs+] [CsCl]
increase of enzyme activity (levodione reductase [2]; 1.8 M CsCl): about 250 fold | Relative Activity (levodione reductase [2]; [5]): 5.9% | Relative Activity (levodione reductase [2]; [6]): 14.3% | Relative Activity (levodione reductase [2]; [7]): 28.3% | Relative Activity (levodione reductase [2]; [8]): 48.1% | Relative Activity (levodione reductase [2]; [9]): 71.4% | Relative Activity (levodione reductase [2]; [10]): 100% | Relative Activity (levodione reductase [2]; [11]): 86.8% | Relative Activity (levodione reductase [2]; [12]): 88.4% | Relative Activity (levodione reductase [2]; [13]): 88.0%

O=C1CCCCC1 [Cyclohexanone]
Enzyme Activity (levodione reductase [3]): Not detected (ND)

CO[C@@H]1O[C@H](CO)[C@@H](O)[C@H](O)[C@H]1O [D1, β-methyl-D-glucoside]
Assimilation [1]: −

COC1OC(CO)C(O)C(O)C1O [D2, α-methyl-D-mannoside]
Assimilation [1]: −

OC[C@H]1O[C@H](OC[C@H]2OC(O)(CO)[C@@H](O)[C@@H]2O)[C@H](O)[C@@H](O)[C@@H]1O (stereo partly drawn) [D3, Palatinose]
Assimilation [1]: +

OC[C@H]1O[C@H](OC[C@H]2O[C@H](O[C@]3(CO)O[C@H](CO)[C@@H](O)[C@@H]3O)[C@H](O)[C@@H](O)[C@@H]2O)[C@H](O)[C@@H](O)[C@H]1O [D5, D-raffinose]
Assimilation [1]: +

OC[C@@]12OC[C@@H](O1)[C@@H](O)[C@@H](O)[C@@H]2O [D9, Sedoheputulosan]
Assimilation [1]: −

OC[C@H]1O[C@H](OC[C@H]2O[C@H](OC[C@H]3O[C@H](O[C@]4(CO)O[C@H](CO)[C@@H](O)[C@@H]4O)[C@H](O)[C@@H](O)[C@@H]3O)[C@H](O)[C@@H](O)[C@H]2O)[C@H](O)[C@@H](O)[C@H]1O [D11, Stachyose]
Assimilation [1]: +

OC[C@H]1O[C@H](O[C@H]2O[C@H](CO)[C@@H](O)[C@H](O)[C@H]2O)[C@H](O)[C@@H](O)[C@@H]1O [E2, D-trehalose]
Assimilation [1]: −

O=C(CO)[C@@H](O[C@H]1O[C@H](CO)[C@@H](O)[C@H](O)[C@H]1O)[C@H](O)[C@H](O)CO [E3, Turanose]
Assimilation [1]: +

C[C@H](O)C(=O)O [F3, L-lactic acid]
Assimilation [1]: −

O=C(O)C[C@@H](O)C(=O)O [F4, D-malic acid]
Assimilation [1]: −

O=C(O)C[C@H](O)C(=O)O [F5, L-malic acid]
Assimilation [1]: −

O=C1CC[C@@H](C(=O)O)N1 [G8, L-pyloglutamic acid]
Assimilation [1]: −

NCCCCN [G10, Putrscine]
Assimilation [1]: −

O=P(O)(O)O[C@H]1O[C@H](CO)[C@@H](O)[C@H](O)[C@H]1O [H10, Glucose-1-phosphate]
Assimilation [1]: −

[Cl-].[K+] [KCl]
Relative Activity (levodione reductase [2]; Table 4-2, metal 200 mM): 11.5% | Relative Activity (levodione reductase [2]; Table 4-2, metal 400 mM): 22.2% | Relative Activity (levodione reductase [2]; Table 4-2, metal 800 mM): 40.5% | Relative Activity (levodione reductase [2]; Table 4-2, metal 1600 mM): 45.3% | Relative Activity (levodione reductase [2]; Table 4-2, metal 1800 mM): 33.5% | Relative Activity (levodione reductase [2]; Table 4-2, metal 2000 mM): 28.4% | Relative Activity (levodione reductase [2]; Table 4-2, metal 2500 mM): 25.9% | Relative Activity (levodione reductase [2]; Table 4-2, metal 3000 mM): 25.2%

C[C@@H]1CC(=O)CC(C)(C)C1=O [Levodione, (6R)-2,2,6-trimethylcyclohexane-1,4-dione]
Enzyme Activity (levodione reductase [3]): 5.66 unit/ml | substrate specificity of the enzyme (levodione reductase [3]; substrates 2 mM): the only substrate for which the enzyme exhibited activity

NC(=O)C1=CN([C@@H]2O[C@H](COP(=O)(O)OP(=O)(O)OC[C@H]3O[C@@H](n4cnc5c(N)ncnc54)[C@H](O)[C@@H]3O)[C@@H](O)[C@H]2O)C=CC1 [NADH]
function as co-factor / electron donor (levodione reductase [4]): could serve as a co-factor

NC(=O)C1=CN([C@@H]2O[C@H](COP(=O)(O)OP(=O)(O)OC[C@H]3O[C@@H](n4cnc5c(N)ncnc54)[C@H](OP(=O)(O)O)[C@@H]3O)[C@@H](O)[C@H]2O)C=CC1 [NADPH]
actinol detected by gas chromatography (levodione reductase [4]; NADH replaced with NADPH, 30° C.): only a trace amount of actinol was detected | function as co-factor / electron donor (levodione reductase [4]): does not work as an electron donor; also recorded: could not

Cl.N [NH4Cl]
Relative Activity (levodione reductase [2]; Table 4-2, metal 100 mM): 6.4% | Relative Activity (levodione reductase [2]; Table 4-2, metal 200 mM): 21.3% | Relative Activity (levodione reductase [2]; Table 4-2, metal 400 mM): 39.3% | Relative Activity (levodione reductase [2]; Table 4-2, metal 800 mM): 67.1% | Relative Activity (levodione reductase [2]; Table 4-2, metal 1600 mM): 100% | Relative Activity (levodione reductase [2]; Table 4-2, metal 1800 mM): 75.3%

[Cl-].[Na+] [NaCl]
Relative Activity (levodione reductase [2]; Table 4-1, Tris-HCl pH 7.5, metal 3 mM): 0.4% | Relative Activity (levodione reductase [2]; Table 4-2, metal 100 mM): 4.2% | Relative Activity (levodione reductase [2]; Table 4-2, metal 200 mM): 7.7% | Relative Activity (levodione reductase [2]; Table 4-2, metal 400 mM): 19.7% | Relative Activity (levodione reductase [2]; Table 4-2, metal 800 mM): 35.9% | Relative Activity (levodione reductase [2]; Table 4-2, metal 1600 mM): 75.3% | Relative Activity (levodione reductase [2]; Table 4-2, metal 1800 mM): 62.8% | Relative Activity (levodione reductase [2]; Table 4-2, metal 2000 mM): 62.8% | Relative Activity (levodione reductase [2]; Table 4-2, metal 2500 mM): 53.9% | Relative Activity (levodione reductase [2]; Table 4-2, metal 3000 mM): 34.1%

[Cl-].[Rb+] [RbCl]
increase of enzyme activity (levodione reductase [2]; 3 M RbCl): about 250 fold | Relative Activity (levodione reductase [2]; [5]): 6.4% | Relative Activity (levodione reductase [2]; [6]): 7.5% | Relative Activity (levodione reductase [2]; [7]): 23.3% | Relative Activity (levodione reductase [2]; [8]): 32.6% | Relative Activity (levodione reductase [2]; [9]): 66.4% | Relative Activity (levodione reductase [2]; [10]): 65.1% | Relative Activity (levodione reductase [2]; [11]): 93.2% | Relative Activity (levodione reductase [2]; [12]): 93.3% | Relative Activity (levodione reductase [2]; [13]): 100%

Dextrin [A4]
Assimilation [1]: −

Glycogen [A5]
Assimilation [1]: −

Inulin [A6]
Assimilation [1]: −

Mannan [A7]
Assimilation [1]: −

TWEEN ® 40 [A8]
Assimilation [1]: +

TWEEN ® 80 [A9]
Assimilation [1]: +
